Data set [1] in a line: The drug is tested on Z-010 corresponding to metagenome with ENA study accession number: PRJEB37062 and ENA sample accession number: ERS12561810 for biotransformation under anaerobic condition. The drug concentrations were measured over 9 timepoints collected between 0 and 24 hours of incubation by liquid-chromatography-coupled mass spectrometry (LC–MS). The note with it: 2 µM.

A short description of data set [2]: The drug is tested on Z-003 corresponding to pig gut metagenome with ENA study accession number: PRJEB37062 and ENA sample accession number: ERS12561803 for biotransformation under anaerobic condition. The drug concentrations were measured over 9 timepoints collected between 0 and 24 hours of incubation by liquid-chromatography-coupled mass spectrometry (LC–MS). The note with it: 2 µM.

For data set [3] the following is noted: human gut metagenome, 24 h, 2 µM.
The conditions of data set [4]: human gut metagenome, 24 h, 2 µM. This is another data set of the same source.
The conditions of data set [5]: human gut metagenome, 24 h, 2 µM. This is another data set of the same source.
The nature of data set [6]: The drug is tested on Z-018 corresponding to pig gut metagenome with ENA study accession number: PRJEB37062 and ENA sample accession number: ERS12561817 for biotransformation under anaerobic condition. The drug concentrations were measured over 9 timepoints collected between 0 and 24 hours of incubation by liquid-chromatography-coupled mass spectrometry (LC–MS). The following applies: 2 µM.

Data set [7] can be described thus: The drug is tested on Z-028 corresponding to mouse gut metagenome with ENA study accession number: PRJEB37062 and ENA sample accession number: ERS12561827 for biotransformation under anaerobic condition. The drug concentrations were measured over 9 timepoints collected between 0 and 24 hours of incubation by liquid-chromatography-coupled mass spectrometry (LC–MS). The note with it: 2 µM.

Data set [8] is described as follows: The drug is tested on WLS-027 corresponding to human gut metagenome with ENA study accession number: PRJEB37062 and ENA sample accession number: ERS12561744 for biotransformation under anaerobic condition. The drug concentrations were measured over 9 timepoints collected between 0 and 24 hours of incubation by liquid-chromatography-coupled mass spectrometry (LC–MS). The note with it: 2 µM.

For data set [9] the following is noted: human gut metagenome, 24 h, 2 µM. This is another data set of the same source.
For data set [10] the following is noted: human gut metagenome, 24 h, 2 µM. This is another data set of the same source.
Data set [11] is described as follows: The drug is tested on Z-027 corresponding to metagenome with ENA study accession number: PRJEB37062 and ENA sample accession number: ERS12561826 for biotransformation under anaerobic condition. The drug concentrations were measured over 9 timepoints collected between 0 and 24 hours of incubation by liquid-chromatography-coupled mass spectrometry (LC–MS). The note with it: 2 µM.

For data set [12] the following is noted: human gut metagenome, 24 h, 2 µM. This is another data set of the same source.
The conditions of data set [13]: human gut metagenome, 24 h, 2 µM. This is another data set of the same source.
Data set [14] can be described thus: The drug is tested on WLS-038 corresponding to human gut metagenome with ENA study accession number: PRJEB37062 and ENA sample accession number: ERS12561745 for biotransformation under anaerobic condition. The drug concentrations were measured over 9 timepoints collected between 0 and 24 hours of incubation by liquid-chromatography-coupled mass spectrometry (LC–MS). The note with it: 2 µM.

The nature of data set [15]: The drug is tested on Z-002 corresponding to rabbit gut metagenome with ENA study accession number: PRJEB37062 and ENA sample accession number: ERS12561802 for biotransformation under anaerobic condition. The drug concentrations were measured over 9 timepoints collected between 0 and 24 hours of incubation by liquid-chromatography-coupled mass spectrometry (LC–MS). The following applies: 2 µM.

Data set [16] can be described thus: The drug is tested on WLS-086 corresponding to human gut metagenome with ENA study accession number: PRJEB37062 and ENA sample accession number: ERS12561752 for biotransformation under anaerobic condition. The drug concentrations were measured over 9 timepoints collected between 0 and 24 hours of incubation by liquid-chromatography-coupled mass spectrometry (LC–MS). The note with it: 2 µM.

Data set [17] can be described thus: The drug is tested on Z-013 corresponding to rabbit gut metagenome with ENA study accession number: PRJEB37062 and ENA sample accession number: ERS12561813 for biotransformation under anaerobic condition. The drug concentrations were measured over 9 timepoints collected between 0 and 24 hours of incubation by liquid-chromatography-coupled mass spectrometry (LC–MS). The following applies: 2 µM.

The conditions of data set [18]: human gut metagenome, 24 h, 2 µM. The source holds these as a separate data set.
The conditions of data set [19]: human gut metagenome, 24 h, 2 µM. The source holds these as a separate data set.
The conditions of data set [20]: human gut metagenome, 24 h, 2 µM. The source holds these as a separate data set.
Also: call rule not given here.

For the compound `CC(C)c1c(CN(C)C(C)Cc2ccccc2)n(C)n(-c2ccccc2)c1=O` (stereo not given) [FAMPROFAZONE], the “Bacterial Biotransformation” value in data set [1] is given as “Compound metabolized”; in data set [2], “Compound metabolized”; in data set [3], “Compound metabolized”; in data set [4], “Compound metabolized”; in data set [5], “Compound metabolized”; in data set [6], “Compound NOT metabolized”. Besides, the “Bacterial Biotransformation” value in data set [7] is listed as “Compound NOT metabolized”; in data set [8], “Compound metabolized”; in data set [9], “Compound metabolized”; in data set [10], “Compound metabolized”; in data set [11] it was “Compound metabolized”; in data set [12], “Compound metabolized”. Further, the “Bacterial Biotransformation” value in data set [13], in data set [14], in data set [15], in data set [16], in data set [17] and in [18] was “Compound metabolized” each time. The “Bacterial Biotransformation” value in data set [19] and in data set [20] was “Compound metabolized” in each case.
Turning to `Nc1nc(N)nc(-c2cc(Cl)ccc2Cl)n1.O=C(O)/C=C\C(=O)O` [IRSOGLADINE MALEATE], the “Bacterial Biotransformation” value in [1], in data set [2], in data set [3], in data set [4], in data set [5] and in data set [6] was “Compound NOT metabolized” in each case. The “Bacterial Biotransformation” value in [7], in data set [8], in [9], in [10], in [11] and in [12] was “Compound NOT metabolized” throughout. The “Bacterial Biotransformation” value in data set [13] was “Compound metabolized”; in data set [14], “Compound NOT metabolized”; in [15], “Compound NOT metabolized”; in [16], “Compound metabolized”; in data set [17], “Compound NOT metabolized”; in [18], “Compound NOT metabolized”. In addition, the “Bacterial Biotransformation” value in data set [19] and in data set [20] was “Compound NOT metabolized” each time.
In the case of `CN1CCC(=C2c3ccccc3CC(=O)c3sccc32)CC1.O=C(O)/C=C/C(=O)O` [KETOTIFEN FUMARATE], the “Bacterial Biotransformation” value in data set [1] was “Compound NOT metabolized”; in data set [2] it was “Compound NOT metabolized”; in data set [3], “Compound metabolized”; in data set [4], “Compound metabolized”; in data set [5], “Compound NOT metabolized”; in data set [6], “Compound NOT metabolized”. Moreover, the “Bacterial Biotransformation” value is listed as “Compound NOT metabolized” in data set [7]; “Compound NOT metabolized” in [8]; “Compound NOT metabolized” in data set [9]; “Compound metabolized” in data set [10]; “Compound NOT metabolized” in data set [11]; “Compound metabolized” in data set [12]. Moreover, the “Bacterial Biotransformation” value in data set [13] was “Compound metabolized”; in data set [14] it was “Compound NOT metabolized”; in data set [15] it was “Compound NOT metabolized”; in [16], “Compound metabolized”; in data set [17], “Compound NOT metabolized”; in data set [18], “Compound metabolized”. Besides, the “Bacterial Biotransformation” value in [19] and in [20] was “Compound NOT metabolized” throughout.
Take `CC[C@H](C)C(=O)O[C@H]1CCC=C2C=C[C@H](C)[C@H](CC[C@@H]3C[C@@H](O)CC(=O)O3)[C@H]21` [MEVASTATIN]: the “Bacterial Biotransformation” value in [1] is on record as “Compound NOT metabolized”; in [2], “Compound NOT metabolized”; in data set [3], “Compound NOT metabolized”; in data set [4] it was “Compound NOT metabolized”; in [5], “Compound NOT metabolized”; in [6], “Compound metabolized”. The “Bacterial Biotransformation” value in data set [7] was “Compound metabolized”; in data set [8], “Compound metabolized”; in data set [9] it was “Compound NOT metabolized”; in data set [10], “Compound metabolized”; in data set [11], “Compound NOT metabolized”; in data set [12], “Compound metabolized”. Further, the “Bacterial Biotransformation” value in data set [13] is recorded as “Compound metabolized”; in [14], “Compound metabolized”; in data set [15], “Compound NOT metabolized”; in data set [16], “Compound metabolized”; in data set [17] it was “Compound NOT metabolized”; in data set [18], “Compound metabolized”. The “Bacterial Biotransformation” value in [19] is recorded as “Compound metabolized”; in data set [20] it was “Compound NOT metabolized”.
On to `COc1ccc2cc([C@H](C)C(=O)O)ccc2c1` [NAPROXEN], for which the “Bacterial Biotransformation” value in data set [1] is on record as “Compound NOT metabolized”; in data set [2], “Compound NOT metabolized”; in data set [3] it was “Compound metabolized”; in data set [4], “Compound metabolized”; in [5] it was “Compound NOT metabolized”; in data set [6] it was “Compound NOT metabolized”. Moreover, the “Bacterial Biotransformation” value was “Compound NOT metabolized” in [7]; “Compound metabolized” in [8]; “Compound metabolized” in data set [9]; “Compound metabolized” in data set [10]; “Compound NOT metabolized” in [11]; “Compound metabolized” in [12]. Moreover, the “Bacterial Biotransformation” value in data set [13] was “Compound metabolized”; in data set [14] it was “Compound NOT metabolized”; in [15] it was “Compound NOT metabolized”; in data set [16], “Compound metabolized”; in [17] it was “Compound NOT metabolized”; in [18], “Compound metabolized”. Further, the “Bacterial Biotransformation” value in data set [19] is recorded as “Compound NOT metabolized”; in [20], “Compound metabolized”.
Turning to `C#C[C@]1(OC(C)=O)CC[C@H]2[C@@H]3CCC4=C/C(=N/O)CC[C@@H]4[C@H]3CC[C@@]21CC` [NORGESTIMATE], the “Bacterial Biotransformation” value is recorded as “Compound NOT metabolized” in data set [1]; “Compound NOT metabolized” in data set [2]; “Compound metabolized” in data set [3]; “Compound metabolized” in [4]; “Compound metabolized” in [5]; “Compound NOT metabolized” in data set [6]. Also, the “Bacterial Biotransformation” value in data set [7] was “Compound NOT metabolized”; in [8] it was “Compound metabolized”; in data set [9], “Compound metabolized”; in [10], “Compound metabolized”; in data set [11], “Compound NOT metabolized”; in data set [12], “Compound metabolized”. Further, the “Bacterial Biotransformation” value in data set [13] was “Compound metabolized”; in data set [14], “Compound metabolized”; in data set [15], “Compound NOT metabolized”; in data set [16], “Compound metabolized”; in data set [17], “Compound NOT metabolized”; in data set [18] it was “Compound metabolized”. In addition, the “Bacterial Biotransformation” value in data set [19] and in [20] was “Compound metabolized” each time.

Source of the values: ChEMBL document CHEMBL5724914, “Linking interpersonal differences in gut microbiota composition and drug biotransformation activity” (2024).
